Results published in patent publication US20250081967A1, “PESTICIDALLY ACTIVE HETEROCYCLIC DERIVATIVES WITH SULFOXIMINE CONTAINING SUBSTITUENTS” (SYNGENTA CROP PROTECTION AG, priority 2021, published 2025).

Key:
Assay type in all cases: in vivo
Myzus persicae [1] = assay: Activity against Myzus persicae (green peach aphid), feeding/contact activity, sunflower leaf discs; conditions: for mortality at 200 ppm: 144 h, application rate 200 ppm, feeding/contact, 6 days after infestation
Experimental: Example B4: Activity Against Myzus persicae (Green Peach Aphid) Feeding/Contact Activity
Sunflower leaf discs were placed on agar in a 24-well microtiter plate and sprayed with aqueous test solutions prepared from 10′000 ppm DMSO stock solutions. After drying, the leaf discs were infested with an aphid population of mixed ages. The samples were assessed for mortality 6 days after infestation.

Plutella xylostella = assay: Activity against Plutella xylostella (diamond back moth), artificial diet, eggs; conditions: 192 h, application rate 200 ppm, 8 days after infestation, read-out: effect in at least one of the two categories (mortality or growth inhibition)
Experimental: Example B9: Activity Against Plutella xylostella (Diamond Back Moth)
24-well microtiter plates with artificial diet were treated with aqueous test solutions prepared from 10′000 ppm DMSO stock solutions by pipetting. After drying, Plutella eggs were pipetted through a plastic stencil onto a gel blotting paper and the plate was closed with it. The samples were assessed for mortality and growth inhibition in comparison to untreated samples 8 days after infestation.

Myzus persicae [2] = assay: Activity against Myzus persicae (green peach aphid), systemic activity, pea seedlings; conditions: Myzus persicae
Experimental: Example B5: Activity Against Myzus persicae (Green Peach Aphid) Systemic Activity
Roots of pea seedlings infested with an aphid population of mixed ages were placed directly in the aqueous test solutions prepared from 10′000 DMSO stock solutions. The samples were assessed for mortality 6 days after placing seedlings in test solutions.

Diabrotica balteata = assay: Activity against Diabrotica balteata (corn root worm), maize sprouts; conditions: for percent effect (mortality or growth inhibition) at 200 ppm: 96 h, application rate 200 ppm, L2 larvae, 4 days after infestation, read-out: effect in at least one of the two categories (mortality or growth inhibition); for mortality at 3.125 ppm: concentration 3.125 ppm; for mortality at 50 ppm: concentration 50 ppm
Experimental: Example B3: Activity Against Diabrotica Balteata (Corn Root Worm)
Maize sprouts placed onto an agar layer in 24-well microtiter plates were treated with aqueous test solutions prepared from 10′000 ppm DMSO stock solutions by spraying. After drying, the plates were infested with L2 larvae (6 to 10 per well). The samples were assessed for mortality and growth inhibition in comparison to untreated samples 4 days after infestation.

Bemisia tabaci = assay: Activity against Bemisia tabaci (cotton white fly), cotton leaf discs; conditions: foliar; for mortality at 12.5 ppm: concentration 12.5 ppm; for mortality at 200 ppm: 144 h, application rate 200 ppm, adult white flies, 6 days after incubation
Experimental: Example B6: Activity Against Bemisia tabaci (Cotton White Fly)
Cotton leaf discs were placed on agar in 24-well microtiter plates and sprayed with aqueous test solutions prepared from 10′000 ppm DMSO stock solutions. After drying the leaf discs were infested with adult white flies. The samples were checked for mortality 6 days after incubation.

Spodoptera littoralis = assay: Activity against Spodoptera littoralis (Egyptian cotton leaf worm), cotton leaf discs; conditions: foliar, 72 h, application rate 200 ppm, L1 larvae, 3 days after infestation, read-out: control (mortality, anti-feeding effect or growth inhibition)
Experimental: Example B1: Activity Against Spodoptera littoralis (Egyptian Cotton Leaf Worm)
Cotton leaf discs were placed onto agar in 24-well microtiter plates and sprayed with aqueous test solutions prepared from 10′000 ppm DMSO stock solutions. After drying the leaf discs were infested with five L1 larvae. The samples were assessed for mortality, anti-feeding effect, and growth inhibition in comparison to untreated samples 3 days after infestation. Control of Spodoptera littoralis by a test sample is given when at least one of the categories mortality, anti-feedant effect, and growth inhibition is higher than the untreated sample.

[3] = 144 h, test rate 24 ppm, systemic, 6 days after placing seedlings in test solutions
[4] = Myzus persicae, foliar, Myzus persicae (feeding/contact), concentration 3.125 ppm
[5] = Myzus persicae (systemic), concentration 24 ppm

## CCS(=O)(=O)c1cc(OC(C)(C)C#N)cnc1-c1nc2cc(C(F)(F)F)n(C3CC3)c(=O)c2n1C [Described in WO21/219810 as compound P7, reference compound]
Myzus persicae [1]; Myzus persicae, foliar, Myzus persicae (contact), concentration 50 ppm
  mortality at 50 ppm: 0%

## CCS(=N)(=O)c1cc(OC(C)(C)C#N)cnc1-c1cn2ccc(C(F)(F)F)cc2n1 (single isomer, unassigned) [Compound P3-B, 2-[[5-(ethylsulfonimidoyl)-6-[7-(trifluoromethyl)imidazo[1,2-a]pyridin-2-yl]-3-pyridyl]oxy]-2-methyl-propanenitrile]
Plutella xylostella
  percent effect (mortality or growth inhibition) at 200 ppm: ≥ 80%
Myzus persicae [2]; [3]
  mortality at 24 ppm: ≥ 80%

## CCS(=O)(=O)c1cc(C2(C#N)CC2)cnc1-c1nc2cc(C(F)(F)F)nnc2n1C [Described in WO18/108726 as compound H-1, reference compound]
Myzus persicae [1]; [4]
  mortality at 3.125 ppm: 80%

## CCS(=N)(=O)c1cc(C(C)(C)C#N)cnc1-c1nc2cc(C(F)(F)F)ncc2n1C (single isomer, unassigned) [Compound P4-B, 2-[5-(ethylsulfonimidoyl)-6-[3-methyl-6-(trifluoromethyl)imidazo[4,5-c]pyridin-2-yl]-3-pyridyl]-2-methyl-propanenitrile]
Plutella xylostella
  percent effect (mortality or growth inhibition) at 200 ppm: ≥ 80%
Diabrotica balteata
  percent effect (mortality or growth inhibition) at 200 ppm: ≥ 80%

## CCS(=N)(=O)c1cc(OC(C)(C)C#N)cnc1-c1cn2cnc(SC(F)(F)F)cc2n1 (racemic) [Described in WO20/084075 as compound P11, reference compound]
Bemisia tabaci; concentration 50 ppm
  mortality at 50 ppm: 50%

## CCS(=O)(=O)c1cc(C2(C#N)CC2)ccc1-c1nc2cc(C(F)(F)F)cnc2n1C [reference compound]
Myzus persicae [2]; Myzus persicae (systemic), concentration 6 ppm
  mortality at 6 ppm: 0%

## CCS(=O)(=O)c1cc(C2(C#N)CC2)cnc1-c1nc2cc(C(F)(F)F)ncc2n1C [reference compound]
Myzus persicae [1]; Myzus persicae, foliar, Myzus persicae (feeding/contact), concentration 0.781 ppm
  mortality at 0.781 ppm: 0%

## CCS(=N)(=O)c1cc(OC(C)(C)C#N)cnc1-c1nc2cc(C(F)(F)F)nnc2n1C (racemic) [Described in WO20/084075 as compound P2, reference compound]
Diabrotica balteata; concentration 12.5 ppm
  mortality at 12.5 ppm: 0%

## CCS(=N)(=O)c1cc(C2(C#N)CC2)cnc1-c1nc2cc(C(F)(F)F)cnc2n1C (racemic) [Described in WO19/234158 as compound P6, reference compound]
Bemisia tabaci
  mortality at 12.5 ppm: 50%

## CCS(=O)(=O)c1cc(OC(C)(C)C#N)c(C)nc1-c1nc2cc(C(F)(F)F)cnc2n1C (racemic) [Described in WO20/084075 as compound P4, reference compound]
Diabrotica balteata
  mortality at 3.125 ppm: 0%

## CCS(=N)(=O)c1cc(C(C)(C)C#N)cnc1-c1nc2cc(C(F)(F)F)ncc2n1C (single isomer, unassigned) [Compound P4-A, 2-[5-(ethylsulfonimidoyl)-6-[3-methyl-6-(trifluoromethyl)imidazo[4,5-c]pyridin-2-yl]-3-pyridyl]-2-methyl-propanenitrile]
Bemisia tabaci
  mortality at 200 ppm: ≥ 80%
Myzus persicae [1]; Myzus persicae, foliar
  mortality at 200 ppm: ≥ 80%
Myzus persicae [2]; [3]
  mortality at 24 ppm: ≥ 80%

## CCS(=N)(=O)c1cc(C2(C#N)CC2)cnc1-c1nc2cc(C(F)(F)F)ncc2n1C (racemic) [reference compound]
Bemisia tabaci
  mortality at 12.5 ppm: 50%

## CCS(=N)(=O)c1cc(C2(C#N)CC2)cnc1-c1nc2cc(C(F)(F)F)nnc2n1C (single isomer, unassigned) [Compound P2-B, 1-[5-(ethylsulfonimidoyl)-6-[7-methyl-3-(trifluoromethyl)imidazo[4,5-c]pyridazin-6-yl]-3-pyridyl]cyclopropanecarbonitrile]
Myzus persicae [1]; Myzus persicae (feeding/contact), concentration 3.125 ppm
  Mortality (%): 50%

## CCS(=O)(=O)c1cc(OC(C)(C)C#N)c(C)nc1-c1nc2cc(C(F)(F)F)cnc2n1C [Described in WO21/219810 as compound P4, reference compound]
Myzus persicae [2]; [5]
  mortality at 24 ppm: 0%

## CCS(=O)(=O)c1cc(OC(C)(C)C#N)cnc1-c1cn2cnc(C(F)(F)F)cc2n1 [Described in WO18/206348 as compound P13, reference compound]
Myzus persicae [2]; [5]
  mortality at 24 ppm: 0%

## CCS(=N)(=O)c1cc(C2(C#N)CC2)ccc1-c1nc2cc(C(F)(F)F)cnc2n1C (racemic) [Described in WO19/234158 as compound P15, reference compound]
Diabrotica balteata
  mortality at 50 ppm: 0%

## CCS(=O)(=O)c1cc(C2(C#N)CC2)cnc1-c1nc2cc(C(F)(F)F)cnc2n1C [reference compound]
Myzus persicae [1]; [4]
  mortality at 3.125 ppm: 80%

## CCS(=N)(=O)c1cc(OC(C)(C)C#N)cnc1-c1cn2cnc(C(F)(F)F)cc2n1 (single isomer, unassigned) [Compound P11-B, 2-[[5-(ethylsulfonimidoyl)-6-[7-(trifluoromethyl)imidazo[1,2-c]pyrimidin-2-yl]-3-pyridyl]oxy]-2-methyl-propanenitrile]
Bemisia tabaci
  mortality at 200 ppm: ≥ 80%

## CCS(=N)(=O)c1cc(OC(C)(C)C#N)cnc1-c1cn2ccc(C(F)(F)F)cc2n1 (single isomer, unassigned) [Compound P3-A, 2-[[5-(ethylsulfonimidoyl)-6-[7-(trifluoromethyl)imidazo[1,2-a]pyridin-2-yl]-3-pyridyl]oxy]-2-methyl-propanenitrile]
Diabrotica balteata
  percent effect (mortality or growth inhibition) at 200 ppm: ≥ 80%
Myzus persicae [1]; Myzus persicae, foliar
  mortality at 200 ppm: ≥ 80%
Spodoptera littoralis
  percent control (mortality, anti-feedant effect or growth inhibition) at 200 ppm: ≥ 80%

## CCS(=N)(=O)c1cc(OC(C)(C)C#N)c(C)nc1-c1nc2cc(C(F)(F)F)cnc2n1C (single isomer, unassigned) [Compound P5-A, 2-[[5-(ethylsulfonimidoyl)-2-methyl-6-[3-methyl-6-(trifluoromethyl)imidazo[4,5-b]pyridin-2-yl]-3-pyridyl]oxy]-2-methyl-propanenitrile]
Diabrotica balteata
  percent effect (mortality or growth inhibition) at 200 ppm: ≥ 80%
  mortality at 3.125 ppm: 80%
Bemisia tabaci
  mortality at 200 ppm: ≥ 80%
Myzus persicae [1]; Myzus persicae, foliar
  mortality at 200 ppm: ≥ 80%
Myzus persicae [2]; [3]
  mortality at 24 ppm: ≥ 80%
Myzus persicae [2]; [5]
  mortality at 24 ppm: 100%
Spodoptera littoralis
  percent control (mortality, anti-feedant effect or growth inhibition) at 200 ppm: ≥ 80%

## CCS(=O)(=O)c1cc(OC(C)(C)C#N)cnc1-c1nc2cc(C(F)(F)F)ncc2n1C [Described in WO18/197315 as compound P18, reference compound]
Myzus persicae [1]; Myzus persicae, foliar, Myzus persicae (feeding/contact), concentration 12.5 ppm
  mortality at 12.5 ppm: 65%

## CCS(=N)(=O)c1cc(OC(C)(C)C#N)cnc1-c1nc2cc(C(F)(F)F)cnc2n1C (racemic) [Described in WO20/084075 as compound P3, reference compound]
Diabrotica balteata
  mortality at 50 ppm: 80%

## CCS(=N)(=O)c1cc(C(C)(C)C#N)cnc1-c1nc2cc(C(F)(F)F)ncc2n1C (racemic) [Compound P4, 2-[5-(ethylsulfonimidoyl)-6-[3-methyl-6-(trifluoromethyl)imidazo[4,5-c]pyridin-2-yl]-3-pyridyl]-2-methyl-propanenitrile]
Bemisia tabaci
  mortality at 200 ppm: ≥ 80%
Myzus persicae [1]; Myzus persicae, foliar
  mortality at 200 ppm: ≥ 80%
Myzus persicae [2]; [3]
  mortality at 24 ppm: ≥ 80%

## CCS(=N)(=O)c1cc(OC(C)(C)C#N)cnc1-c1nc2cc(C(F)(F)F)ncc2n1C (racemic) [Described in WO20/084075 as compound P1, reference compound]
Diabrotica balteata
  mortality at 50 ppm: 0%

## CCS(=N)(=O)c1cc(C2(C#N)CC2)ccc1-c1nc2cc(C(F)(F)F)ncc2n1C (racemic) [Described in WO19/234158 as compound P13, reference compound]
Diabrotica balteata
  mortality at 50 ppm: 0%
Bemisia tabaci
  mortality at 12.5 ppm: 0%

## CCS(=O)(=O)c1cc(OC(C)(C)C#N)cnc1-c1nc2cc(C(F)(F)F)cnc2n1C [Described in WO21/219810 as compound P3, reference compound]
Myzus persicae [2]; [5]
  mortality at 24 ppm: 50%

## CCn1c(C(F)(F)F)cc2nc(-c3ncc(C4(C#N)CC4)cc3S(=N)(=O)CC)n(C)c2c1=O (racemic) [Described in WO19/234158 as compound P14, reference compound]
Diabrotica balteata
  mortality at 50 ppm: 0%

## CCS(=N)(=O)c1cc(OC(C)(C)C#N)cnc1-c1nc2cc(C(F)(F)F)nnc2n1C (single isomer, unassigned) [Compound P15-B, 2-[[5-(ethylsulfonimidoyl)-6-[7-methyl-3-(trifluoromethyl)imidazo[4,5-c]pyridazin-6-yl]-3-pyridyl]oxy]-2-methyl-propanenitrile]
Diabrotica balteata; concentration 12.5 ppm
  Mortality (%): 100%
